Measured values reported in PMC10860144, “Exploring the Dispersion and Electrostatic Components in Arene–Arene Interactions between Ligands and G4 DNA to Develop G4-Ligands” (Journal of Medicinal Chemistry, 2024).

Columns and labels:
[1] = tested on: G4 structure on DNA template (PEPu24T); test: Taq polymerase stop (primer extension) assay, G4 template; type: biochemical
From the text: To challenge all the synthesized compounds (2–11 and 25–29) in a more intricate context, we conducted a Taq polymerase stop assay to evaluate their capacity to impede DNA synthesis through G4 stabilization. In this assay, we compared the progress of the Taq DNA polymerase along two distinct DNA templates: one with a G4 structure (Figure 5) and another serving as a non-G4 control (Figure S21). If an external species (e.g., G4 ligand) binds and stabilizes the G4 structure, the polymerase will be partially halted. The extent of this DNA polymerase stalling is dependent on the ability of the compound to stabilize the G4 on the DNA template. The increased G4 stabilization can be detected as a reduction in the amount of newly synthesized DNA that has reached the end of the DNA template (full-length/end-product). Analysis of these shorter terminated DNA products will give information about the precise location of the DNA polymerase stalling with a single nucleotide resolution. If the ligand imposes little to no stabilization or binding, the G4 is readily resolved by the DNA polymerase, and no difference in the amount of DNA end-product can therefore be expected upon the addition of the compound.
Templates for the primer extension assay were created by annealing 25 nt TET labeled primer (1 μM final concentration) to either PEPu24T or a mutated sequence not forming a G4, PEPu24T mut, (1.25 μM final concentration) in 100 mM KCl by heating to 95 °C for 5 min and slowly cooling to room temperature. […] Compounds were added in the indicated concentration and incubated on ice for 10 min before starting the reaction by adding dNTPs (100 μM final concentration) to the reaction and transferring it to 37 °C. Reactions were stopped after 15 min by addition of 10 μL of formamide loading buffer (0.5% SDS, 25 mM EDTA, 95% v/v formamide and xylene-cyanol). Samples were then loaded on a 12% polyacrylamide gel containing 7 M urea and 25% formamide and imaged using an Amersham Typhoon. The images were quantified using ImageJ 1.53e software, and the percentage of full-length product compared to a sample without compound was calculated.
Templates for the primer extension assay were created by annealing 25nt TET labelled primer (1 µM final concentration) to either PEPu24T or a mutated sequence not forming a G4, PEPu24T mut, (1.25 µM final concentration) in 100 mM KCl by heating to 95 °C for 5 min and slowly cooling to room temperature. The reaction mixture (10 µl) contained 1X Taq Buffer with KCl (10 mM Tris-HCl pH 8.8, 50 mM KCl, detergent), 25 mM MgCl2, […]
[…] Compounds were added in the indicated concentration and incubated on ice for 10 min before starting the reaction by adding dNTPs (100 µM final concentration) to the reaction and transferring it to 37 °C. Reactions were stopped after 15 min by addition of 10 µl of formamide loading buffer (0,5% SDS, 25 mM EDTA, 95% v/v formamide and xylene-cyanol). Samples were then loaded on a 12% polyacrylamide gel containing 7 M urea and 25% formamide and imaged using an Amersham™ Typhoon™.
The images were quantified using ImageJ 1.53e software and the percentage of full-length product compared to a sample without compound was calculated. […]

logD at pH 7.4 = type: physicochemical
Experimental: Physicochemical properties
The Physicochemical profiling (LogD, Solubility, Caco-2 cell permeability) was performed as previously
described.8 Cell viability was performed as described below.
Table S2. Pharmacokinetic Properties
Compound Structure logD, Solubility, Rat hepsa Human mics b

[2] = Intrinsic clearance in rat hepatocytes; type: in vitro ADME
Experimental: (§1) All compounds (2–11, 25–29) were screened for their logD and solubility at pH 7.4 and for their intrinsic clearance in rat hepatocytes and human microsomes (Table S2). […] Replacing the basic amine side chain to a methyl substituent in the quinazolines (25–29) still retained good solubility (134 to over 1000 μM) but increased clearance in both rat hepatocytes and human microsomes. The logD was low for compounds with a basic amine side chain (2–11) and increased slightly when the amine was replaced with a methyl (25–29). As expected, additional substituents also affected the logD with the chloro-substituents increasing logD the most.
(§2) a Intrinsic clearance in rat hepatocytes ((μL/min)/10^6 cells).b Intrinsic clearance in human microsomes (μL/min/mg). […]

[3] = Intrinsic clearance in human microsomes; type: in vitro ADME; details: read-out: Human mics: intrinsic clearance in human microsomes
Experimental: as §1, §2

Pu24T c-MYC G4 structure = test: Kd for binding to the Pu24T c-MYC G4 structure (supplementary CSV); set-up: species or system human
Experimental: 5′-Cy5 labeled G4 DNAs for this study were purchased from Eurofins Genomics. Stock solutions were prepared in water at 100 μM concentration. The sequences used are listed in Supporting Information Table S1. The G4 DNA sequences were folded in KCl buffer (10 mM phosphate, 100 mM KCl, pH 7.4) by heating at 95 °C for 5 min and then cooling to room temperature. All the experiments were performed in 10 mM phosphate pH 7.4, 100 mM KCl, and 0.05% Tween20. The labeled DNA concentration is held constant at 25 nM, and ligand concentration is varied depending on ligands Kd (16 1:3 dilutions). The samples were loaded into standard MST graded glass capillaries and initial fluorescence intensity of the capillary was measured using Monolith NT.115 (Nano Temper, Germany) with 20% LED power. The change in fluorescence with ligand’s concentrations were plotted in Excel and fitted through nonlinear equation to obtain the binding constants.
The Supporting Information is available free of charge at https://pubs.acs.org/doi/10.1021/acs.jmedchem.3c02127. • Experimental procedures and data; assay data, computational results, and all cell data; NMR (^1H and ^13C) spectra for all compounds (with the exception of a few intermediates); and HPLC UV traces for the final compounds (PDF) • Molecular formula strings and Kd values for binding to the Pu24T c-MYC G4 structure (CSV)

Question: Which “full-length DNA product” value ([1]; compound 0.24 μM, compared to DMSO control) does the source give for `Cc1cc(NCCCN(C)C)nc(Nc2ncc3ccccc3n2)n1` [Compound 2, N4-(3-(Dimethylamino)propyl)-6-methyl-N2-(quinazolin-2-yl)pyrimidine-2,4-diamine] here?
Answer: about 65%

Question: And the logD (logD at pH 7.4)?
Answer: -0.1

Question: What about the “Rat heps: intrinsic clearance in rat hepatocytes” value [2] of the same compound?
Answer: 8 (μL/min)/106 cells

Question: And the microsomal CLint [3]?
Answer: < 3 µL/min/mg

Question: What about the Kd (Pu24T c-MYC G4 structure) of the same compound?
Answer: 1400 ± 300 nM

Question: Which “blocking of the Taq DNA polymerase at the G4 structure (in words)” value ([1]; compound 0.24 μM) does the source give for `Cc1cc(C)c2nc(Nc3nc(C)cc(NCCCN(C)C)n3)nc(C)c2c1` [Compound 5, N4-(3-(Dimethylamino)propyl)-6-methyl-N2-(4,6,8-trimethylquinazolin-2-yl)pyrimidine-2,4-diamine] here?
Answer: almost completely blocked

Question: And the logD (logD at pH 7.4)?
Answer: 0.6

Question: What about the “Rat heps: intrinsic clearance in rat hepatocytes” value [2] of the same compound?
Answer: 1 (μL/min)/106 cells

Question: And the microsomal CLint [3]?
Answer: < 3 µL/min/mg

Question: And the Kd (Pu24T c-MYC G4 structure)?
Answer: 50 ± 4 nM

Question: Which results are given for `Cc1cc(C)c2nc(Nc3nc(C)cc(C)n3)nc(C)c2c1` [Compound 27, N-(4,6-Dimethylpyrimidin-2-yl)-4,6,8-trimethylquinazolin-2-amine]?
Answer: IC50 ([1]; G4 template, DNA 0.048 μM, read-out: concentration reaching 50% inhibition of DNA end-product): 1200 nM; logD (logD at pH 7.4): 2.9; Rat heps: intrinsic clearance in rat hepatocytes [2]: 27 (μL/min)/106 cells; microsomal CLint [3]: 140 µL/min/mg; Kd (Pu24T c-MYC G4 structure): 800 ± 100 nM
